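1) Cells in 96-well plates. 2) Compound, 48 h, 5 concentrations. 3) Linear interpolation between surrounding doses. 4) Unreached endpoint = highest concentration. GI50 marks 50% less growth. TGI marks complete inhibition of growth.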

Drawing on PubChem BioAssay (NCI), this text covers TGI and GI50 for 9 molecules.

Test in all cases: DTP human tumour cell line panel, 48 h
Assay [1] relates to PC-3 prostate.
Assay [2] has as its system A498 renal.
In assay [3] the test system is OVCAR-4 ovarian.
Assay [4] concerns CAKI-1 renal.
Assay [5] deals with CCRF-CEM leukemia.
Assay [6] deals with NCI-H23 lung.
Assay [7] has as its system SK-MEL-28 melanoma.
In assay [8] the test system is NCI-H460 lung.
For assay [9], the system named is TK-10 renal.
The test system of assay [10] is 786-0 renal.

On to `COc1ccc(C(O)CNC(=O)c2ccccc2)cc1` (stereo not given), for which the TGI in assay [1], in assay [2], in assay [3], in assay [4], in assay [5] and in [6] was greater than 100 µM throughout. The TGI in [7], in assay [8], in [9] and in [10] was greater than 100 µM throughout.

With `CC(ONC(=O)c1cc(C(F)(F)F)cc(C(F)(F)F)c1)C(=O)Nc1ccc(Cl)cc1` (stereo not given), the GI50 (in general, the concentration that inhibits growth by half) in assay [1] was 3.63 µM; in assay [2], 3.35 µM; in assay [3], 4.64 µM; in [4], 20.3 µM; in [5], 1.09 µM; in assay [6] it was 3.55 µM. For the same molecule, the GI50 is 5.4 µM in assay [7], 3.5 µM in assay [8], 5.42 µM in [9] and 5.61 µM in assay [10]. For the same molecule, the TGI (commonly the concentration giving total growth inhibition) in assay [1] is 18.4 µM; in assay [2], 14.5 µM; in [3], greater than 100 µM; in [4], greater than 76.6 µM; in assay [5], 5.38 µM; in [6], 10.6 µM. Further, the TGI in [7] was 37.4 µM; in assay [8], 15 µM; in assay [9], greater than 75.1 µM; in [10], 22 µM.

With `COc1cc(CSc2nc3ccc(C)cc3c(=O)n2Cc2ccccc2)cc(OC)c1OC`, the GI50 is 2.66 µM in assay [1]; 2.14 µM in assay [2]; 5.01 µM in [3]; 2.48 µM in assay [4]; 2.37 µM in assay [5]; 4.4 µM in assay [6]. For the same molecule, the GI50 is 2.99 µM in assay [7], 2.26 µM in assay [8], 6.47 µM in assay [9] and 7.49 µM in [10]. In addition, the concentration for total growth inhibition (TGI) was greater than 100 µM in assay [1]; 12.4 µM in assay [2]; 63.4 µM in [3]; greater than 100 µM in assay [4]; greater than 100 µM in assay [5]; greater than 100 µM in assay [6]. Besides, the TGI in assay [7] was 96.8 µM; in [8] it was greater than 100 µM; in assay [9], 47.9 µM; in assay [10] it was 65.6 µM.

Regarding `COc1ccc2[nH]cc(-c3nc(-c4cn(C)c5ccncc45)cs3)c2c1`, the GI50 in assay [1] is 1.98 µM; in [2], 8.86 µM; in assay [3], 2.14 µM; in assay [4], 1.84 µM; in assay [5] it was 2.33 µM; in [6], 2.12 µM. In addition, the GI50 in assay [7] is 1.79 µM; in [8] it was 1.97 µM; in [9] it was 1.48 µM; in assay [10], 1.54 µM. Besides, the concentration for total growth inhibition (TGI) was 4.13 µM in assay [1]; 21.5 µM in [2]; 4.51 µM in assay [3]; 3.35 µM in assay [4]; 6.25 µM in [5]; 4.12 µM in assay [6]. Moreover, the TGI in assay [7] was found to be 3.22 µM; in assay [8], 3.67 µM; in assay [9], 3.12 µM; in [10], 2.9 µM.

In the case of `C#C[C@]1(O)CC[C@H]2[C@@H]3CC=C4c5sc(N=C(N)N)nc5CC[C@]4(C)[C@H]3CC[C@@]21C`, the GI50 in assay [1] was 0.475 µM; in [2], 0.274 µM; in assay [3] it was 1.33 µM; in assay [4], 0.615 µM; in assay [5], 0.365 µM; in [6], 1.26 µM. The GI50 was 0.4 µM in assay [7], 1.05 µM in assay [8], 1.85 µM in assay [9] and 0.453 µM in assay [10]. In addition, the TGI in assay [1] came to 1.8 µM; in assay [2], 1.02 µM; in assay [3], 2.75 µM; in [4], 1.82 µM; in assay [5], 3.43 µM; in assay [6], 2.92 µM. The concentration for total growth inhibition (TGI) in assay [7] stood at 1.61 µM; in assay [8], 2.5 µM; in assay [9] it was 3.44 µM; in assay [10], 1.81 µM.

Consider `CC(C)=CCc1c(O)cc(/C=C/c2cc(O)c3c(c2)C[C@@H]2C(C)(C)[C@H](O)[C@H](O)C[C@@]2(C)O3)cc1O`, for which the 50% growth inhibitory concentration (GI50) in assay [1] is 0.345 µM; in [2], 1.22 µM; in [3], 0.831 µM; in assay [4] it was 0.00267 µM; in assay [5] it was less than 0.001 µM; in assay [6], 1.51 µM. Besides, the GI50 in assay [7] is 1.58 µM; in assay [8] it was 0.00146 µM; in assay [9], 0.479 µM; in assay [10] it was less than 0.001 µM. The TGI in assay [1] is greater than 10 µM; in assay [2], 9.57 µM; in assay [3], 4.08 µM; in assay [4], greater than 5.6 µM; in [5], 2 µM; in assay [6] it was 7.68 µM. Moreover, the TGI in assay [7] was greater than 5.26 µM; in assay [8], greater than 4.36 µM; in [9] it was greater than 3.1 µM; in assay [10], greater than 6.26 µM.

Regarding `O=[N+]([O-])c1ccccc1N=Nc1c(O)[nH]c2ccccc12`, the total growth inhibition concentration (TGI) in [1] is greater than 100 µM; in [2], greater than 61.6 µM; in [3], greater than 61.1 µM; in [4] it was greater than 54.7 µM; in [5], greater than 100 µM; in assay [6] it was 35.9 µM. The concentration for total growth inhibition (TGI) in assay [7] was greater than 100 µM; in [8], greater than 96.6 µM; in [9], greater than 100 µM; in assay [10], 36.1 µM.

On to `COc1cc(OC)c2c(=O)c(O)c(-c3ccc(OC)c(OC)c3)oc2c1`, for which the concentration for total growth inhibition (TGI) is greater than 100 µM in [1]; greater than 100 µM in [2]; 2.31 µM in [3]; greater than 31.4 µM in [4]; greater than 100 µM in [5]; greater than 100 µM in assay [6]. For the same molecule, the TGI in assay [7] is greater than 31.6 µM; in [8], greater than 100 µM; in assay [9], greater than 100 µM; in assay [10], greater than 100 µM.

Take `CS(=O)(=O)CCNCc1ccc(-c2ccc3ncnc(Nc4ccc(OCc5cccc(C(F)(F)F)c5)cc4)c3c2)o1`: the GI50 in assay [1] is 5.63 µM; in assay [2] it was 4.38 µM; in assay [3], 8.68 µM; in [4] it was 5.57 µM; in assay [5], 6.14 µM; in assay [6], 5.93 µM. The GI50 in [7] is 4.29 µM; in [8], 5.31 µM; in [9], 3.17 µM; in assay [10] it was 4.61 µM. The TGI in assay [1] was 19.9 µM; in assay [2], 13.1 µM; in [3], greater than 25 µM; in assay [4], greater than 19.8 µM; in [5] it was greater than 25 µM; in [6], 15.7 µM. The concentration for total growth inhibition (TGI) in [7] turned out to be 8.23 µM; in [8], 11.8 µM; in assay [9] it was 11.1 µM; in assay [10], 8.85 µM.
